The subject of test [1] is human platelets. The test can be described thus: Thrombin-induced platelet release of CD40L (ELISA). Type of test: cell-based. The following applies: 20 μM for 15 min, then 0.8 U/ml thrombin, 5-60 min. The protocol: (§1) Platelets were then activated with 0.8 U/ml thrombin or buffer and samples were taken at the 5, 10, 15, 30 and 60 minutes time points to measure human soluble CD40L and PGE2. CD40L assays were performed with a commercially available ELISA specific for CD40L (Bender Biomedical Systems, San Bruno, Calif.). […] The stable end product of platelet TXA2 synthesis, namely TXB2, was measured using a highly specific enzyme immunoassay from Cayman Chemical Company as per the manufacturer's directions.
(§2) Platelets were then incubated with buffer or with thrombin, a powerful platelet activator.
In general terms: An ELISA detects its analyte on a solid surface through an enzyme-linked reagent.

Test [2] concerns human platelets. As to the kind of experiment: Thrombin-induced platelet release of PGE2 (enzyme immunoassay). It counts as cell-based. The following applies: 20 μM for 15 min, then 0.8 U/ml thrombin. The protocol: as §1
Test [3] concerns the target T1, PPARγ (Homo sapiens, UniProt P37231).
T1 construct: endogenous in cells; host or cells: purified human blood platelets
T1 sequence (P37231 1-505): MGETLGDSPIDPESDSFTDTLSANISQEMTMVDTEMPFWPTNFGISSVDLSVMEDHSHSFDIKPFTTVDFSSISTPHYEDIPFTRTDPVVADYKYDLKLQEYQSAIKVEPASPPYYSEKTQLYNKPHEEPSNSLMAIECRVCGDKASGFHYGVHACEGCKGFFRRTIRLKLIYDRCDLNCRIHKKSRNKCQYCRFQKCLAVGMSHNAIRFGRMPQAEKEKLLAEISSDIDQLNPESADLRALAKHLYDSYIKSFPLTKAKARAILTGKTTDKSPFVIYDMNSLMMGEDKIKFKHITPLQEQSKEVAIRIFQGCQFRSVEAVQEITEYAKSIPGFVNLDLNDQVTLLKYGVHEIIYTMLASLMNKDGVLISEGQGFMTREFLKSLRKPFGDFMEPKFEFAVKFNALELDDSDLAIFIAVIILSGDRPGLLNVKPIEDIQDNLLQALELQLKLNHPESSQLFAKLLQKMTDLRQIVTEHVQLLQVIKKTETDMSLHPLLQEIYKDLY
T1 sequence (P19793 1-462 partner): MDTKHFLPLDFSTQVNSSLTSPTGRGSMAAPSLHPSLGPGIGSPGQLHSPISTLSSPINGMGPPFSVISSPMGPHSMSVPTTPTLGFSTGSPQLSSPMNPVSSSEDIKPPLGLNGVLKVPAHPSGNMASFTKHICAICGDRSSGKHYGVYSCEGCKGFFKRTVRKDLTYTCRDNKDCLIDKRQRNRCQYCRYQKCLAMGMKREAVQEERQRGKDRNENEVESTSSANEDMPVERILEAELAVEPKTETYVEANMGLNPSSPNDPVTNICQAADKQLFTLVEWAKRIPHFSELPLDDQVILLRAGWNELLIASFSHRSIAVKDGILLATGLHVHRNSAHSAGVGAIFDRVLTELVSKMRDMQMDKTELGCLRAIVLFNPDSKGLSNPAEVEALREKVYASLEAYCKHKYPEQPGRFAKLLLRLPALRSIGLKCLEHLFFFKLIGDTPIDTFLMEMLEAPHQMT
The test can be described thus: Electrophoretic mobility shift assay for PPARγ DNA binding in Meg-01 cells. Type of test: cell-based. The following applies: 15d-PGJ2 5 μM or ciglitazone 10 μM, 4 hours, nuclear extract, vs DMSO. The protocol: Cells were treated with 5 μM 15d-PGJ2, 10 μM ciglitazone, or DMSO (vehicle control) for 4 hours. The cells were washed in cold PBS and then incubated on ice in hypotonic buffer (10 mM HEPES-KOH (pH 7.9), 1.5 mM MgCl2, 10 mM KCl, 0.5 mM DTT, 0.5% Nonidet P-40 and 0.2 mM PMSF) for 10 minutes. The lysates were vortexed for 10 seconds and centrifuged for 15 seconds. The pellet was isolated carefully and re-suspended in 80 μl of hypertonic buffer (20 mM HEPES-KOH (pH 7.9), 1.5 mM MgCl2, 25% glycerol, 420 mM NaCl, 0.2 mM EDTA, 0.5 mM DTT, and 0.2 mM PMSF). After incubation on ice for 20 minutes, lysates were centrifuged for 20 seconds and the supernatant containing the nuclear protein was transferred to new tubes. Protein quantification was performed using a BCA assay kit. Platelet protein isolation was done as described for the PPARγ activity assay. For the gel shift assay of Meg-01 and platelets, the consensus sequence for PPARγ (5′-[…]-3′) (SEQ ID NO: 1) was labeled with [γ-32P]ATP using T4 Polynucleotide Kinase (Life technologies). Micro Bio-Spin P-30 Tris Chromatography Columns were used to remove the unbound nucleotides (Bio-Rad). […]
For orientation: A gel shift assay detects complexes by their altered migration in electrophoresis.

In test [4] the target is T1, PPARγ. The test can be described thus: TransAM PPARγ DNA binding activity assay in platelets. It counts as cell-based. The note with it: platelets exposed to 20 μM agonist, 2 h at 37° C.
Description: Platelets were lysed with hypotonic buffer (10 mM HEPES-KOH (pH 7.9), 1.5 mM MgCl2, 10 mM KCl, 0.5 mM DTT, 0.5% Nonidet P-40 and 0.2 mM PMSF) and 10 μg of cell extract was incubated in each well of TransAM® PPARγ assay kit (Active Motif, Carlsbad, Calif.) and PPARγ DNA binding was determined as per manufacturers' protocol.
The ability of platelet derived PPARγ to bind its DNA consensus sequence was also measured using the TransAM™ PPARγ assay kit (Active Motif Inc.). In this method the consensus DNA sequence for PPARγ binding (or as a control mutated oligonucleotides) is plate-bound. A cell lysate is then added to the well, washed and next incubated with an enzyme-conjugated anti-PPARγ antibody that recognizes only DNA-bound PPARγ. Following substrate addition, a colored product is formed.
For test [5], the system named is platelets. The test can be described thus: Platelet aggregation in platelet rich plasma (turbidometric method of Born). Type of test: cell-based, human.
Description: Platelet aggregation was performed using the turbidometric method of Born (“Quantitative Investigations into the Aggregation of Blood Platelets,” J. Physiol. Lond. 162:67 (1962), which is hereby incorporated by reference in its entirety) with simultaneous measurement of ATP release using a Chrono-log Lumi-aggregometer with AGGRO/LINK for Windows Software version 5.1.6 (Chrono-log Corp., Havertown, Pa.). Blood was collected by clean venipuncture from normal donors who abstained from drugs known to affect platelet aggregation into 0.105M/sodium citrate. Platelet rich plasma (PRP) was prepared by centrifugation at 150×g for 10 min at 20° C., and the platelet count adjusted to 250,000/μl by mixing PRP and platelet poor plasma from the same donor. All experiments were performed within 3 hours of blood collection. Aggregation was performed with ADP, and the slope of aggregation and amplitude were computed using accompanying software. The effects of the PPARγ agonist 15d-PGJ2 were tested by addition of varying concentrations to PRP for 15 min before aggregation. The 15d-PGJ2 was dissolved in DMSO, with a final concentration of DMSO in the samples of approximately 0.1%.
For another test, the system named is Human blood. As to the kind of experiment: PFA-100 clotting (closure) time in human blood. It counts as cell-based. The note with it: vs vehicle only, p=0.012. The protocol: Platelet activation was induced using epinephrine or ADP, and clotting time was assessed using a PFA-100. The PFA-100 allows for an approximation of bleeding times in patients. Longer closure times equal a lower ability to form a clot. […] Human blood was exposed to 15d-PGJ2 or vehicle only followed by testing in the PFA-100 activated with ADP.

Test [6] concerns platelets. The test can be described thus: ATP release from platelets during aggregation (Lumi-aggregometry). The following applies: 20 μM.
Description: ATP release from platelets during aggregation was characterized by Lumi-Aggregometry after stimulation with thrombin (1 U/ml) or ADP (5 μM). […] The rate of release with normal platelets was defined as 100%. […] The results represent mean±SEM of three experiments.
Platelet aggregation was performed using the turbidometric method of Born (“Quantitative Investigations into the Aggregation of Blood Platelets,” J. Physiol. Lond. 162:67 (1962), which is hereby incorporated by reference in its entirety) with simultaneous measurement of ATP release using a Chrono-log Lumi-aggregometer with AGGRO/LINK for Windows Software version 5.1.6 (Chrono-log Corp., Havertown, Pa.). Blood was collected by clean venipuncture from normal donors who abstained from drugs known to affect platelet aggregation into 0.105M/sodium citrate. Platelet rich plasma (PRP) was prepared by centrifugation at 150×g for 10 min at 20° C., and the platelet count adjusted to 250,000/μl by mixing PRP and platelet poor plasma from the same donor. All experiments were performed within 3 hours of blood collection. Aggregation was performed with ADP, and the slope of aggregation and amplitude were computed using accompanying software. The effects of the PPARγ agonist 15d-PGJ2 were tested by addition of varying concentrations to PRP for 15 min before aggregation. The 15d-PGJ2 was dissolved in DMSO, with a final concentration of DMSO in the samples of approximately 0.1%. […] Additional clotting studies were performed using a PFA-100 according to the manufacturer's instructions. Basically, clotting time (induced by clotting activator such as epinephrine or ADP) was measured in the presence or absence of a PPARγ agonist, and differences noted.
To determine if a PPARγ agonist would inhibit platelet aggregation, the natural PPARγ agonist 15d-PGJ2 was added to PRP and aggregation and ATP release stimulated with ADP.
Test [7] deals with human platelets. The test can be described thus: Thrombin-induced platelet release of TXB2 (enzyme immunoassay). The following applies: 20 μM for 15 min, then 0.8 U/ml thrombin, 5-60 min. Type of test: cell-based. The protocol:
as §1, §2

Structures are written as SMILES.

With `CCCCC/C=C/C=C1/C(=O)C=C[C@@H]1C/C=C\CCCC(=O)O` [15d-PGJ2, 15D-prostaglandin J2], in the test on human platelets [1], the “release of CD40L” value is reported as “largely prevented”. Further, the “thrombin-induced release of PGE2” value with human platelets [2] is “substantially prevented”. In addition, the “level of active (DNA binding) PPARγ in Meg-01 cells by EMSA” value on PPARγ [3] is “increased”. Also, on PPARγ [4], the “binding to the PPARγ DNA response element (TransAM)” value was “significantly enhances binding”. Besides, in the test with platelets [5] (10 μM, ADP as platelet agonist), the “aggregation slope (rate)” value is reported as “decrease the aggregation slope”. In addition, in the test on platelets [5] (20 μM, ADP-stimulated PRP, first 16 seconds, mean±SEM, n=7), the “initial slope of platelet aggregation, % of the normal (untreated)” value turned out to be 83±5%. For the same compound, the “amplitude of aggregation, % of normal platelets” value in the test with platelets [5] (20 μM, ADP-stimulated PRP, mean±SEM, n=7) was 64±11%. Also, the “platelet aggregation, concentration dependence” value with platelets [5] (varying concentrations, 15 min before ADP) was “concentration dependent inhibition”. Further, the “PFA-100 closure time, ADP activated” value with Human blood is listed as “takes longer to form a closure”. In the test with platelets [6] (ADP-stimulated, n=7), the “ATP release amplitude, % of normal platelets” value is recorded as 22±10% and the “ATP release slope, % of normal” value is listed as 15±5%. Also, the “rate of ATP release with thrombin” value with platelets [6] (thrombin 1 U/ml) is on record as “significant (P=0.002) reduction”. Also, in the test on human platelets [7], the “release of TXB2” value is recorded as “largely prevented”.

The values are drawn from patent publication US20070135382A1, “Use of peroxisome proliferator-activated receptor gamma (ppary) and/or retinoic acid receptor (rxr) agonists to inhibit platelet functions” (priority 2003, published 2007).
